Reference: ChEMBL document CHEMBL5614431, “Discovery of 1,3,4-oxadiazoles with slow-action activity against Plasmodium falciparum malaria parasites” (Eur J Med Chem, 2024)
Activity calls are given as the source filed them. The calls are words filed in the database; no cut-off is given here.

Assays:
Plasmodium falciparum [1] = test: Antimalarial activity against synchronous ring stage Plasmodium falciparum 3D7 infected in human Erythrocyte assessed as inhibition of parasite growth incubated for 48 hrs by [3H]-hypoxanthine incorporation assay; type: functional, organism-based; conditions: 3D7, Erythrocyte
Plasmodium falciparum [2] = test: Antimalarial activity against synchronous ring stage Plasmodium falciparum 3D7 infected in human Erythrocyte assessed as inhibition of parasite growth incubated for 96 hrs by [3H]-hypoxanthine incorporation assay; type: functional, organism-based; conditions: 3D7, Erythrocyte
[3] = Selectivity ratio of IC50 for antimalarial activity against synchronous ring stage Plasmodium falciparum 3D7 infected in human Erythrocyte assessed as inhibition of parasite growth incubated for 48 hrs by [3H]-hypoxanthine incorporation assay to IC50 for antimalarial activity against synchronous ring stage Plasmodium falciparum 3D7 infected in human Erythrocyte assessed as inhibition of parasite growth incubated for 48 hrs by [3H]-hypoxanthine incorporation assay; type: functional
[4] = Cytotoxicity against human NFF cells assessed as reduction in cell viability incubated for 72 hrs by SRB assay; type: toxicity, cell-based
[5] = Selectivity index, ratio of IC50 for cytotoxicity against human NFF cells to IC50 for antimalarial activity against synchronous ring stage Plasmodium falciparum 3D7 infected in human Erythrocyte assessed as inhibition of parasite growth incubated for 96 hrs; type: toxicity, cell-based; conditions: read-out: Ratio IC50
[6] = Apparent half life in non fasted female BALB/c mouse at 100 mg/kg, po via gavage and measured upto 24 hrs by LC-MS analysis; type: ADME, organism-based; conditions: in vivo, read-out: t1/2(app) (converted)
[7] = Cmax in non fasted female BALB/c mouse plasma at 100 mg/kg, po via gavage and measured upto 24 hrs by LC-MS analysis; type: ADME, organism-based
[8] = Tmax in non fasted female BALB/c mouse at 100 mg/kg, po via gavage and measured upto 24 hrs by LC-MS analysis; type: ADME, organism-based; conditions: in vivo
[9] = AUC (0 to t) in non fasted female BALB/c mouse plasma at 100 mg/kg, po via gavage and measured after 4 hrs by LC-MS analysis; type: ADME, organism-based
[10] = AUC (0 to infinity) in non fasted female BALB/c mouse at 100 mg/kg, po via gavage and measured upto 24 hrs by LC-MS analysis; type: ADME, organism-based; conditions: in vivo
[11] = AUC (0 to t) in non fasted female BALB/c mouse plasma at 100 mg/kg, po via gavage and measured after 7.5 hrs by LC-MS analysis; type: ADME, organism-based
Plasmodium berghei [12] = test: Antimalarial activity against Plasmodium berghei ANKA infected in female BALB/c mouse model assessed as reduction in parasitemia at 10 mg/kg, po qd pre-infected for 2 hrs followed by compound addition and measured after 3 days by microscopic analysis; type: functional, organism-based; conditions: time 3.0 day
Plasmodium falciparum [13] = test: Antimalarial activity against multidrug-resistant synchronous ring stage Plasmodium falciparum Dd2 infected in human Erythrocyte assessed as inhibition of parasite growth incubated for 48 hrs by [3H]-hypoxanthine incorporation assay; type: functional, organism-based
Plasmodium falciparum [14] = test: Antimalarial activity against multidrug-resistant synchronous ring stage Plasmodium falciparum Dd2 infected in human Erythrocyte assessed as inhibition of parasite growth incubated for 96 hrs by [3H]-hypoxanthine incorporation assay; type: functional, organism-based
[15] = Selectivity ratio of IC50 for antimalarial activity against multidrug-resistant synchronous ring stage Plasmodium falciparum Dd2 infected in human Erythrocyte assessed as inhibition of parasite growth incubated for 48 hrs by [3H]-hypoxanthine incorporation assay to IC50 for antimalarial activity against multidrug-resistant synchronous ring stage Plasmodium falciparum Dd2 infected in human …; type: functional
Plasmodium falciparum [16] = test: Resistance index, ratio of IC50 for antimalarial activity against multidrug-resistant synchronous ring stage Plasmodium falciparum Dd2 infected in human Erythrocyte assessed as inhibition of parasite growth incubated for 96 hrs by [3H]-hypoxanthine incorporation assay to IC50 for antimalarial activity against synchronous ring stage Plasmodium falciparum 3D7 infected in human Erythrocyte assessed …; type: toxicity, organism-based
Plasmodium falciparum [17] = test: Antimalarial activity against synchronous ring stage Plasmodium falciparum 3D7 infected in human Erythrocyte assessed as inhibition of parasite growth incubated for 96 hrs supplemented with IPP by [3H]-hypoxanthine incorporation assay; type: functional, organism-based; conditions: 3D7, Erythrocyte
[18] = Selectivity ratio of IC50 for antimalarial activity against synchronous ring stage Plasmodium falciparum 3D7 infected in human Erythrocyte assessed as inhibition of parasite growth incubated for 96 hrs supplemented with IPP by [3H]-hypoxanthine incorporation assay to IC50 for antimalarial activity against synchronous ring stage Plasmodium falciparum 3D7 infected in human Erythrocyte assessed as …; type: functional
[19] = Metabolic stability in human liver microsomes assessed as half life; type: ADME, Microsome
[20] = Metabolic stability in mouse liver microsomes assessed as half life; type: ADME, Microsome
[21] = Apparent permeability of the compound in human Caco-2 cells across apical to basolateral side; type: ADME, cell-based
[22] = Toxicity in female BALB/c mouse assessed as adverse clinical effect at 116 mg/kg, po via gavage administered once for 3 days; type: organism-based; conditions: in vivo, 72 h, time 3 day
[23] = Toxicity in female BALB/c mouse assessed as appearance of ruffled coats in animal at 116 mg/kg, po via gavage administered once daily for 3 days; type: organism-based; conditions: in vivo, 72 h, time 3 day
[24] = Toxicity in female BALB/c mouse assessed as effect on liver at 116 mg/kg, po via gavage administered once daily for 3 days; type: organism-based; conditions: in vivo, 72 h, time 3 day
[25] = Toxicity in female BALB/c mouse assessed as effect on kidney at 116 mg/kg, po via gavage administered once daily for 3 days; type: organism-based; conditions: in vivo, 72 h, time 3 day
[26] = Toxicity in female BALB/c mouse assessed as adverse clinical effect at 116 mg/kg, po via gavage administered twice for 3 days; type: organism-based; conditions: in vivo, 72 h, time 3 day
[27] = Toxicity in female BALB/c mouse assessed as appearance of ruffled coats in animal at 116 mg/kg, po via gavage administered twice daily for 3 days; type: organism-based; conditions: in vivo, 72 h, time 3 day
[28] = Toxicity in female BALB/c mouse assessed as effect on liver at 116 mg/kg, po via gavage administered twice daily for 3 days; type: organism-based; conditions: in vivo, 72 h, time 3 day
[29] = Toxicity in female BALB/c mouse assessed as effect on kidney at 116 mg/kg, po via gavage administered twice daily for 3 days; type: organism-based; conditions: in vivo, 72 h, time 3 day
Plasmodium berghei [30] = test: Antimalarial activity against Plasmodium berghei ANKA infected in female BALB/c mouse model assessed as reduction in parasitemia at 100 mg/kg, po qd pre-infected for 2 hrs followed by compound addition and measured after 3 days by microscopic analysis; type: functional, organism-based; conditions: time 3.0 day
Plasmodium berghei [31] = test: Antimalarial activity against Plasmodium berghei ANKA infected in female BALB/c mouse model assessed as reduction in parasitemia at 100 mg/kg, po bid pre-infected for 2 hrs followed by compound addition and measured after 3 days by microscopic analysis; type: functional, organism-based; conditions: time 3.0 day
[32] = Chemical stability of the compound in aqueous buffer/THF assessed as degradation measured over 24 hrs; type: physicochemical
[33] = Chemical stability of the compound in 1:1 mixture of 6M aqueous hydrochloric acid/THF assessed as degradation measured over 20 hrs; type: physicochemical; conditions: buffer
[34] = Plasma concentration in female BALB/c mouse at 100 mg/kg, po measured after 7.5 hrs; type: ADME, organism-based; conditions: in vivo, BLD = below limit of detection

| Structure (SMILES) | half-life [6] [min] | Cmax [7] [nM] | Tmax [8] [min] | AUC(0-inf) [10] [µM·h] | AUC(0-t) at 7.5 h [11] [µM·h] | IC50 (Plasmodium falciparum [1]) [nM] | IC50 (Plasmodium falciparum [2]) [nM] | Ratio IC50 [3] | IC50 at 72 h [4] [nM] | selectivity ratio at 96 h [5] | IC50 (Plasmodium falciparum [13]) [nM] | IC50 (Plasmodium falciparum [14]) [nM] | Ratio IC50 [15] | Ratio IC50 (Plasmodium falciparum [16]) | IC50 (Plasmodium falciparum [17]) [nM] | Ratio IC50 [18] | half-life [19] [min] | half-life [20] [min] | Papp A→B [21] [×10⁻⁶ cm/s] | Stability [33] | further results |
| --- | --- | --- | --- | --- | --- | --- | --- | --- | --- | --- | --- | --- | --- | --- | --- | --- | --- | --- | --- | --- | --- |
| CCN(CC)CCCC(C)Nc1ccnc2cc(Cl)ccc12 (stereo not given) [CHLOROQUINE] |  |  |  |  |  |  |  |  | 36700 |  |  |  |  |  |  |  |  |  |  |  | Activity (Plasmodium berghei [12]): Active |
| O=S(=O)(c1nnc(N2CCOCC2)o1)C1CCCCC1 |  | 7610 | 15 |  | 11.5 | > 50000 | 550 | >91 | > 100000 | > 182 | > 25000 | 500 | >50 | 1 | 1790 | 3 | > 255 | 99 | 86 | Unstable | Activity [22]: Non-Toxic; Activity [23]: Toxic; Activity [24]: Non-Toxic; Activity [25]: Non-Toxic; Activity [26]: Non-Toxic; Activity [27]: Toxic; Activity [28]: Non-Toxic; Activity [29]: Non-Toxic; Activity (Plasmodium berghei [30]): Active; Activity (Plasmodium berghei [31]): Active; Stability [32]: Stable; Cp [34]: Bld |
| Cc1ccc(C)c(CS(=O)(=O)c2nnc(N3CCOCC3)o2)c1 |  |  |  |  |  | 12400 | 840 | 15 | 20400 | 24 | 13000 | 570 | 23 | 0.7 | 840 | 1 | 5 | 3 | 39 |  |  |

The next lines start with results.

| half-life [6] [min] | Cmax [7] [nM] | Tmax [8] [min] | AUC(0-inf) [10] [µM·h] | AUC(0-t) at 7.5 h [11] [µM·h] | Structure (SMILES) | IC50 (Plasmodium falciparum [1]) [nM] | IC50 (Plasmodium falciparum [2]) [nM] | Ratio IC50 [3] | IC50 at 72 h [4] [nM] | selectivity ratio at 96 h [5] | IC50 (Plasmodium falciparum [13]) [nM] | IC50 (Plasmodium falciparum [14]) [nM] | Ratio IC50 [15] | Ratio IC50 (Plasmodium falciparum [16]) | IC50 (Plasmodium falciparum [17]) [nM] | Ratio IC50 [18] | half-life [19] [min] | half-life [20] [min] | Papp A→B [21] [×10⁻⁶ cm/s] | Stability [33] | further results |
| --- | --- | --- | --- | --- | --- | --- | --- | --- | --- | --- | --- | --- | --- | --- | --- | --- | --- | --- | --- | --- | --- |
| 57 | 2140 | 15 | 3.91 |  | O=S(=O)(CC1CCC1)c1nnc(N2CCOCC2)o1 | > 10000 | 530 | >19 | > 100000 | > 186 |  |  |  |  |  |  |  |  |  |  | AUC(0-t) at 4 h [9]: 3.61 µM·h |
|  | 650 | 15 |  | 1.16 | O=S(=O)(c1nnc(N2CCOCC2)o1)C1CCCCCC1 | > 25000 | 180 | >137 | > 100000 | > 769 |  |  |  |  |  |  |  |  |  |  |  |
| 96 | 310 | 30 | 0.41 | 0.39 | C[C@@H]1CCC[C@H](C)N1c1nnc(S(=O)(=O)C2CCCCC2)o1 | > 12500 | 80 | >165 | > 100000 | > 1670 |  |  |  |  |  |  |  |  |  | Stable |  |
